Values joined by “and” are separate entries in the source; they are usually repeats but may differ in a detail not shown here. Equal entries are not always repeated. Inconclusive results and toxic doses are left out.
Test system: BDF1 mice, P388/VCR leukemia ip, median survival T/C
Assay: NCI In Vivo Anticancer Drug Screen. Data for tumor model P388 Leukemia resistant to Vincristine; NSC 67574 (intraperitoneal) in B6D2F1 (BDF1) mice
Details: endpoint: median survival time, higher = longer survival
Protocol: The antitumor activity of compounds was measured in mice bearing transplantable tumors. Survival or tumor size were measured and the results are expressed as the measurement made in the treated group (T) divided by the measurement made in the vehicle treated control group (C). The tumor model used in this assay is P388 Leukemia resistant to Vincristine; NSC 67574 (intraperitoneal) in B6D2F1 (BDF1) mice

[1] = dose: 5.0 mg/kg/injection, schedule: Q01DX010 (ip), vehicle: saline
[2] = dose: 10.0 mg/kg/injection, schedule: Q01DX010 (ip), vehicle: saline
[3] = dose: 20.0 mg/kg/injection, schedule: Q01DX010 (ip), vehicle: saline
[4] = dose: 40.0 mg/kg/injection, schedule: Q01DX010 (ip), vehicle: saline

Which T/C (dose: 5.4 mg/kg/injection, schedule: Q04DX003 (ip), vehicle: clinical formulation) does the source give for `COc1cc([C@@H]2c3cc4c(cc3[C@@H](OC3OC5CO[C@@H](c6cccs6)OC5C(O)C3O)[C@H]3COC(=O)[C@H]23)OCO4)cc(OC)c1O` (some centres not stated) here?
Its T/C is 153 % of control.

What about the T/C (dose: 15.0 mg/kg/injection, schedule: Q04DX003 (ip), vehicle: clinical formulation) of the same compound?
Its T/C is 172 % of control.

For `N=[N+]=CC(=O)OCC(N)C(=O)O` (configuration not stated), which T/C (dose: 3.13 mg/kg/injection, schedule: Q01DX010 (ip), vehicle: saline) is on record?
Its T/C is 152 % of control.

And the T/C (dose: 6.25 mg/kg/injection, schedule: Q01DX010 (ip), vehicle: saline)?
Its T/C is 165 % of control.

What does the source list for `CCN(CC)CCNc1ccc(CO)c2sc3ccccc3c(=O)c12`?
T/C (dose: 21.6 mg/kg/injection, schedule: Q01DX009 (ip), vehicle: water): 109 % of control; T/C (dose: 25.2 mg/kg/injection, schedule: Q01DX009 (ip), vehicle: water): 120 % of control; T/C (dose: 36.0 mg/kg/injection, schedule: Q01DX009 (ip), vehicle: water): 112 % of control; T/C (dose: 114.0 mg/kg/injection, schedule: Q01DX009 (ip), vehicle: water): 90 % of control

Which T/C [1] does the source give for `C[C@@H]1C[C@@H]([C@H](O)CC2CC(=O)NC(=O)C2)C(=O)[C@@H](C)C1` here?
Its T/C is 92 % of control and 108 % of control.

What about the T/C [2] of the same compound?
Its T/C is 100 % of control and 104 % of control.

What about the T/C [3] of the same compound?
Its T/C is 112 % of control and 116 % of control.

And the T/C [4]?
Its T/C is 120 % of control and 124 % of control.

Which results are given for `CC[C@H]1CN2CCc3cc(OC)c(OC)cc3[C@@H]2C[C@@H]1C[C@H]1NCCc2cc(OC)c(OC)cc21`?
T/C (dose: 7.78 mg/kg/injection, schedule: Q04DX003 (ip), vehicle: saline): 105 % of control; T/C (dose: 13.0 mg/kg/injection, schedule: Q04DX003 (ip), vehicle: saline): 108 % of control; T/C (dose: 21.6 mg/kg/injection, schedule: Q04DX003 (ip), vehicle: saline): 105 % of control

With `Cc1cc(N(CCCl)CCCl)ccc1N=Nc1ccccc1C(=O)O` as the compound, how does the T/C [1] read?
The T/C was 91 % of control and 112 % of control.

Which results are given for `NC(C/[N+]([O-])=N/O)C(=O)O` (configuration not stated)?
T/C (dose: 173.0 mg/kg/injection, schedule: Q04DX003 (ip), vehicle: sodium bicarbonate): 157 % of control; T/C (dose: 288.0 mg/kg/injection, schedule: Q04DX003 (ip), vehicle: sodium bicarbonate): 179 % of control; T/C (dose: 480.0 mg/kg/injection, schedule: Q04DX003 (ip), vehicle: sodium bicarbonate): 181 % of control; T/C (dose: 800.0 mg/kg/injection, schedule: Q04DX003 (ip), vehicle: sodium bicarbonate): 118 % of control

Which T/C (dose: 5.4 mg/kg/injection, schedule: Q04DX003 (ip), vehicle: alkali diluted with saline) does the source give for `CC(=O)c1cccc(NC2C(N)C(NC(=O)N(C)C)(C(C)O)C(C)(O)C2(O)COC(=O)c2c(C)cccc2O)c1` (configuration not stated) here?
The T/C was 98 % of control.

What about the T/C (dose: 9.0 mg/kg/injection, schedule: Q04DX003 (ip), vehicle: alkali diluted with saline) of the same compound?
The T/C was 98 % of control.

And the T/C (dose: 15.0 mg/kg/injection, schedule: Q04DX003 (ip), vehicle: alkali diluted with saline)?
Its T/C is 100 % of control.

Which T/C (dose: 15.6 mg/kg/injection, schedule: Q01DX010 (ip), vehicle: saline) does the source give for `CCn1cnc2c(=S)nc[nH]c21` here?
Its T/C is 100 % of control and 109 % of control.

What about the T/C (dose: 31.3 mg/kg/injection, schedule: Q01DX010 (ip), vehicle: saline) of the same compound?
Its T/C is 100 % of control.

And the T/C (dose: 62.5 mg/kg/injection, schedule: Q01DX010 (ip), vehicle: saline)?
Its T/C is 100 % of control.

What about the T/C (dose: 125.0 mg/kg/injection, schedule: Q01DX010 (ip), vehicle: saline) of the same compound?
Its T/C is 95 % of control.

With `O=C[C@@H](CO)O[C@H](C=O)n1cnc2c(=O)[nH]cnc21` as the compound, how does the T/C (dose: 180.0 mg/kg/injection, schedule: Q04DX003 (ip), vehicle: water) read?
The T/C was 210 % of control.

And the T/C (dose: 300.0 mg/kg/injection, schedule: Q04DX003 (ip), vehicle: water)?
The T/C was 323 % of control.

With `C1CN1c1nc(N2CC2)nc(N2CC2)n1` as the compound, how does the T/C (dose: 0.13 mg/kg/injection, schedule: Q01DX010 (ip), vehicle: saline) read?
The T/C was 88 % of control and 108 % of control.

And the T/C (dose: 0.5 mg/kg/injection, schedule: Q01DX010 (ip), vehicle: saline)?
The T/C was 152 % of control and 228 % of control.

Which T/C (dose: 25.0 mg/kg/injection, schedule: Q01DX010 (ip), vehicle: saline) does the source give for `CC(=O)Nc1ccc2nc3ccc(NC(C)=O)cc3[n+](-c3ccccc3)c2c1` here?
The T/C was 91 % of control.

What about the T/C (dose: 50.0 mg/kg/injection, schedule: Q01DX010 (ip), vehicle: saline) of the same compound?
Its T/C is 87 % of control.

How did the T/C (dose: 64.8 mg/kg/injection, schedule: Q04DX003 (ip), vehicle: saline) turn out when `Nc1nncs1` was run?
Its T/C is 101 % of control.

What about the T/C (dose: 180.0 mg/kg/injection, schedule: Q04DX003 (ip), vehicle: saline) of the same compound?
Its T/C is 151 % of control.

Which results are given for `Clc1ncnc2nc[nH]c12`?
T/C (dose: 7.5 mg/kg/injection, schedule: Q01DX010 (ip), vehicle: saline): 96 % of control and 119 % of control; T/C (dose: 15.0 mg/kg/injection, schedule: Q01DX010 (ip), vehicle: saline): 92 % of control and 107 % of control; T/C (dose: 30.0 mg/kg/injection, schedule: Q01DX010 (ip), vehicle: saline): 107 % of control; T/C (dose: 60.0 mg/kg/injection, schedule: Q01DX010 (ip), vehicle: saline): 92 % of control

Which T/C [2] does the source give for `CC1CCOS(=O)O1` (configuration not stated) here?
The T/C was 96 % of control.

What about the T/C [3] of the same compound?
The T/C was 103 % of control.

What about the T/C [4] of the same compound?
The T/C was 103 % of control.

With `CC(C)[C@](O)(C(=O)OCC1=CC[N+]2([O-])CC[C@@H](O)[C@@H]12)[C@H](C)O` (some centres not stated) as the compound, how does the T/C (dose: 130.0 mg/kg/injection, schedule: Q01DX009 (ip), vehicle: water) read?
Its T/C is 98 % of control.

And the T/C (dose: 216.0 mg/kg/injection, schedule: Q01DX009 (ip), vehicle: water)?
The T/C was 106 % of control.

What about the T/C (dose: 360.0 mg/kg/injection, schedule: Q01DX009 (ip), vehicle: water) of the same compound?
The T/C was 113 % of control.

And the T/C (dose: 600.0 mg/kg/injection, schedule: Q01DX009 (ip), vehicle: water)?
The T/C was 107 % of control.

What does the source list for `CCC1(O)CC2CN(CCc3c([nH]c4ccccc34)C(C(=O)OC)(c3cc4c(cc3OC)N(C)C3C(O)(C(=O)NCCO)C(O)C5(CC)C=CCN6CCC43C65)C2)C1` (configuration not stated)?
T/C (dose: 500.0 micrograms/kg/injection, schedule: Q04DX003 (ip), vehicle: saline): 107 % of control; T/C (dose: 1000.0 micrograms/kg/injection, schedule: Q04DX003 (ip), vehicle: saline): 106 % of control; T/C (dose: 2000.0 micrograms/kg/injection, schedule: Q04DX003 (ip), vehicle: saline): 105 % of control; T/C (dose: 4000.0 micrograms/kg/injection, schedule: Q04DX003 (ip), vehicle: saline): 108 % of control

What does the source list for `O=C(Nc1ccc(C2=NCCCN2)cc1)c1ccc(C(=O)Nc2ccc(C3=NCCCN3)cc2)cc1`?
T/C (dose: 20.0 mg/kg/injection, schedule: Q04DX003 (ip), vehicle: Klucel (hydroxypropylcellulose) (HPC)): 158 % of control; T/C (dose: 33.3 mg/kg/injection, schedule: Q04DX003 (ip), vehicle: Klucel (hydroxypropylcellulose) (HPC)): 101 % of control

Which T/C (dose: 500.0 mg/kg/injection, schedule: Q01DX010 (ip), vehicle: saline) does the source give for `CCOC(N)=O` here?
The T/C was 107 % of control and 119 % of control.

Which T/C (dose: 216.0 micrograms/kg/injection, schedule: Q01DX005 (ip), vehicle: water) does the source give for `CO[C@H](C(=O)[C@@H](O)[C@@H](C)O)[C@@H]1Cc2cc3cc(OC4CC(OC5CC(O)C(O)C(C)O5)C(O)C(C)O4)c(C)c(O)c3c(O)c2C(=O)[C@H]1OC1CC(OC2CC(OC3CC(C)(O)C(O)C(C)O3)C(O)C(C)O2)C(O)C(C)O1` (some centres not stated) here?
Its T/C is 97 % of control.

What about the T/C (dose: 360.0 micrograms/kg/injection, schedule: Q01DX005 (ip), vehicle: water) of the same compound?
The T/C was 100 % of control.

And the T/C (dose: 600.0 micrograms/kg/injection, schedule: Q01DX005 (ip), vehicle: water)?
Its T/C is 95 % of control.

What about the T/C (dose: 1000.0 micrograms/kg/injection, schedule: Q01DX005 (ip), vehicle: water) of the same compound?
The T/C was 95 % of control.

With `Nc1nc(SCc2ccccc2)c2[nH]cnc2n1` as the compound, how does the T/C (dose: 8.0 mg/kg/injection, schedule: Q01DX010 (ip), vehicle: saline) read?
The T/C was 100 % of control.

And the T/C (dose: 16.0 mg/kg/injection, schedule: Q01DX010 (ip), vehicle: saline)?
Its T/C is 95 % of control and 100 % of control.

What about the T/C (dose: 32.0 mg/kg/injection, schedule: Q01DX010 (ip), vehicle: saline) of the same compound?
Its T/C is 104 % of control and 109 % of control.

What about the T/C (dose: 64.0 mg/kg/injection, schedule: Q01DX010 (ip), vehicle: saline) of the same compound?
The T/C was 95 % of control and 100 % of control.

How did the T/C (dose: 25.0 mg/kg/injection, schedule: Q01DX010 (ip), vehicle: alkali diluted with saline) turn out when `Nc1nc2n[nH]nc2c(=O)[nH]1` was run?
Its T/C is 155 % of control and 170 % of control.

What about the T/C (dose: 50.0 mg/kg/injection, schedule: Q01DX010 (ip), vehicle: alkali diluted with saline) of the same compound?
The T/C was 162 % of control and 191 % of control.

What about the T/C (dose: 100.0 mg/kg/injection, schedule: Q01DX010 (ip), vehicle: alkali diluted with saline) of the same compound?
Its T/C is 170 % of control and 204 % of control.

And the T/C (dose: 200.0 mg/kg/injection, schedule: Q01DX010 (ip), vehicle: alkali diluted with saline)?
Its T/C is 177 % of control and 204 % of control.

Which T/C (dose: 3.6 mg/kg/injection, schedule: Q04DX003 (ip), vehicle: clinical formulation) does the source give for `COc1cc(NS(C)(=O)=O)ccc1Nc1c2ccccc2nc2ccccc12` here?
The T/C was 188 % of control.

What about the T/C (dose: 3.6 mg/kg/injection, schedule: Q04DX003 (ip), vehicle: other) of the same compound?
Its T/C is 122 % of control.

What about the T/C (dose: 6.0 mg/kg/injection, schedule: Q04DX003 (ip), vehicle: clinical formulation) of the same compound?
Its T/C is 191 % of control.

What about the T/C (dose: 10.0 mg/kg/injection, schedule: Q04DX003 (ip), vehicle: clinical formulation) of the same compound?
The T/C was 193 % of control.

And the T/C (dose: 10.0 mg/kg/injection, schedule: Q04DX003 (ip), vehicle: other)?
The T/C was 153 % of control.

And the T/C (dose: 16.7 mg/kg/injection, schedule: Q04DX003 (ip), vehicle: clinical formulation)?
The T/C was 107 % of control.

What about the T/C (dose: 16.7 mg/kg/injection, schedule: Q04DX003 (ip), vehicle: other) of the same compound?
Its T/C is 88 % of control.

From PubChem BioAssay AID336 (DTP/NCI, 2004)
